Measurements published in patent US20050244328A1 (priority 2002, published 2005).
Values joined by “and” are separate entries in the source; they are usually repeats but may differ in a detail not shown here. Equal entries are not always repeated. Where two headings read alike, the source gives them in different places.

Experiments:
[1] = test system: M. beryllina; assay: Bioassay of ClO2 treated WWTP 2 effluent by Laboratory 4, silverside minnow; type: in vivo, Menidia beryllina; details: for Sample survival % of M. berylina: grabs Sep. 11, 2002 10:00, 15:30, 22:00, Sep. 12, 2002 10:00
Text: With the success of the above bioassay series that began on Aug. 20, 2002, it was concluded that a third party test was needed to verify research data. Water grabs from the Anastasia Island Treatment Facility, taken on Aug. 28, 2002, were delivered to Laboratory 4, an independent bioassay laboratory. Additional testing of the water sent to Laboratory 4 labs was also forwarded to another contract lab to document the water quality during the sample periods for the bioassays. It should be noted here that the plant was operating under their normal operating conditions and accepting both landfill leachate as well as septic tank and portable toilet waste. These were however pumped into a storage tank and then trickled into the influent stream at the headworks.
The complete toxicological study as reference is included as attachment at the end of this study.
With the successful bioassay conducted by the Laboratory 4 labs, a second series of water samples was taken for the repeat bioassay. These samples were taken on Sep. 11, 2002 and forwarded to Laboratory 4 labs on Sep. 12, 2002 to conduct the bioassay. The results of this test for both the water quality toxicity and the bioassay are illustrated in the Tables 13, 14 and 15.
The complete toxicological results are provided at the end of this study as attachments.

[2] = test system: Fecal Coliform; assay: Fecal coliform counts in effluent, full-scale pilot and baseline at WWTP 2
[3] = test system: Lactobacillus Brevis; details: contact time 300 s, cited from earlier work
[4] = test system: Pectinatus cervisiiphilus; details: 0.1 ppm of ClO2; contact time 5 min; cited from earlier work
[5] = test system: Menidia beryllina; assay: 96-hour bioassay of ClO2 treated side stream effluent, Independent Bioassay Laboratory A, silverside minnow; type: in vivo; details: end of 96-hour test period; ClO2 treated side stream effluent grabs Sep. 3, 2001 12:00, 18:00, 24:00, Sep. 4, 2001 06:00
Text: (§1) Mysidopsis bahia (Mysids) and Menidia beryllina (Silversides) were subjected to ClO2 treated effluent in these tests. Adequate volumes of chemical were brought to the site to conduct a dosing of the side stream for a 24-hour period. During this period, 2 gallons of treated water were taken at 6-hour intervals, preserved on ice and shipped to an independent bioassay laboratory (designated Independent Bioassay Laboratory A).
(§2) Table 3(c) illustrates the survivability of the organisms at the 96-hour end-point in the test for each of the 4 samples taken (samples indicated by date and time each sample was taken.).

[6] = test system: Saccharomyces diastaticus (yeast); details: cited from earlier work
[7] = test system: Mysid shrimp; assay: In-house mysid shrimp acute bioassay of treated effluent; details: for surviving Mysid shrimp DAY 1 (bowls A, B) / surviving Mysid shrimp DAY 2 (bowls A, B) / surviving Mysid shrimp DAY 3 (bowls A, B) / surviving Mysid shrimp DAY 4 (bowls A, B): 10 initial per bowl, set up Aug. 20, 2002
[8] = test system: Mysidopsis bahia; assay: 96-hour bioassay of ClO2 treated side stream effluent, Independent Bioassay Laboratory A, mysid shrimp; type: in vivo; details: end of 96-hour test period; ClO2 treated side stream effluent grabs Sep. 3, 2001 12:00, 18:00, 24:00, Sep. 4, 2001 06:00
Text: as §1, §2

[9] = test system: Eschericia Coli; details: cited from earlier work
[10] = test system: Penicillum expansum (mould); details: cited from earlier work
[11] = test system: Staphylococcus aureus; details: 1 ppm of ClO2; contact time 60 s; cited from earlier work
[12] = test system: Silversides; assay: In-house silverside bioassay of ClO2 treated effluent; type: in vivo, Menidia beryllina; details: numerous in-house tests, WWTP 1

Chlorine dioxide [ClO2]
Sample survival % of M. berylina ([1]; 6.25 % Effluent): 100% | Sample survival % of M. berylina ([1]; 12.5 % Effluent): 100% | Sample survival % of M. berylina ([1]; 25 % Effluent): 100% and 95% | Sample survival % of M. berylina ([1]; 50 % Effluent): 95% and 100% | Sample survival % of M. berylina ([1]; 100 % Effluent): 95% and 100% | M. beryllina % survival ([1]; ClO2 treated effluent grabs Aug. 28, 2002 10:15, 16:00, 22:00, Aug. 29, 2002 09:30): 100% | FECAL ([2]; 13:00, 1.2 PPM DOSE RATE, sample point 1, 19 Aug. 2002): 6 | FC (fecal) ([2]; 15:00, 0.91 PPM DOSE, sample point 4, 19 Aug. 2002): 15 | FECAL ([2]; 15:45, 1.05 PPM DOSE RATE, sample point 4, 19 Aug. 2002): 26 | FECAL ([2]; WWTP 2 effluent 28-Aug, CL2SO2 at 8:30, CLO2 at 10:15): 45 | Inactivation in % ([3]; 0.15 ppm of ClO2): 99.9% | Inactivation in % ([3]; 1 ppm of ClO2): >99.999% | Inactivation in % [4]: 99.9% | Percent Survival m. beryllina [5]: 95% and 100% | Inactivation in % ([6]; 0.15 ppm of ClO2, contact time 10 min): 99.9% | Inactivation in % ([6]; 0.5 ppm of ClO2, contact time 10 min): >99.999% | Inactivation in % ([6]; 1 ppm of ClO2, contact time 1 min): >99.999% | survival rate of Mysid Shrimp 24 HR ([7]; 0.64 PPM DOSE, 25% solution): 100 | survival rate of Mysid Shrimp 48 HR ([7]; 0.64 PPM DOSE, 25% solution): 100 | survival rate of Mysid Shrimp 72 HR ([7]; 0.64 PPM DOSE, 25% solution): 90 | survival rate of Mysid Shrimp 96 HR ([7]; 0.64 PPM DOSE, 25% solution): 90 | surviving Mysid shrimp DAY 1 (bowls A, B) ([7]; 0.64 PPM DOSE, 25% solution): 10 | surviving Mysid shrimp DAY 2 (bowls A, B) ([7]; 0.64 PPM DOSE, 25% solution): 10 | surviving Mysid shrimp DAY 3 (bowls A, B) ([7]; 0.64 PPM DOSE, 25% solution): 9 | surviving Mysid shrimp DAY 4 (bowls A, B) ([7]; 0.64 PPM DOSE, 25% solution): 9 | survival rate of Mysid Shrimp 24 HR ([7]; 0.64 PPM DOSE, 50% solution): 100 | survival rate of Mysid Shrimp 48 HR ([7]; 0.64 PPM DOSE, 50% solution): 100 | survival rate of Mysid Shrimp 72 HR ([7]; 0.64 PPM DOSE, 50% solution): 100 | survival rate of Mysid Shrimp 96 HR ([7]; 0.64 PPM DOSE, 50% solution): 100 | surviving Mysid shrimp DAY 1 (bowls A, B) ([7]; 0.64 PPM DOSE, 50% solution): 10 | surviving Mysid shrimp DAY 2 (bowls A, B) ([7]; 0.64 PPM DOSE, 50% solution): 10 | surviving Mysid shrimp DAY 3 (bowls A, B) ([7]; 0.64 PPM DOSE, 50% solution): 10 | surviving Mysid shrimp DAY 4 (bowls A, B) ([7]; 0.64 PPM DOSE, 50% solution): 10 | survival rate of Mysid Shrimp 24 HR ([7]; 0.64 PPM DOSE, 75% solution): 100 | survival rate of Mysid Shrimp 48 HR ([7]; 0.64 PPM DOSE, 75% solution): 100 | survival rate of Mysid Shrimp 72 HR ([7]; 0.64 PPM DOSE, 75% solution): 95 | survival rate of Mysid Shrimp 96 HR ([7]; 0.64 PPM DOSE, 75% solution): 90 | surviving Mysid shrimp DAY 1 (bowls A, B) ([7]; 0.64 PPM DOSE, 75% solution): 10 | surviving Mysid shrimp DAY 2 (bowls A, B) ([7]; 0.64 PPM DOSE, 75% solution): 10 | surviving Mysid shrimp DAY 3 (bowls A, B) ([7]; 0.64 PPM DOSE, 75% solution): 9 and 10 | surviving Mysid shrimp DAY 4 (bowls A, B) ([7]; 0.64 PPM DOSE, 75% solution): 8 and 10 | survival rate of Mysid Shrimp 24 HR ([7]; 0.64 PPM DOSE, 100% solution): 100 | survival rate of Mysid Shrimp 48 HR ([7]; 0.64 PPM DOSE, 100% solution): 100 | survival rate of Mysid Shrimp 72 HR ([7]; 0.64 PPM DOSE, 100% solution): 85 | survival rate of Mysid Shrimp 96 HR ([7]; 0.64 PPM DOSE, 100% solution): 70 | surviving Mysid shrimp DAY 1 (bowls A, B) ([7]; 0.64 PPM DOSE, 100% solution): 10 | surviving Mysid shrimp DAY 2 (bowls A, B) ([7]; 0.64 PPM DOSE, 100% solution): 10 | surviving Mysid shrimp DAY 3 (bowls A, B) ([7]; 0.64 PPM DOSE, 100% solution): 7 and 10 | surviving Mysid shrimp DAY 4 (bowls A, B) ([7]; 0.64 PPM DOSE, 100% solution): 5 and 9 | survival rate of Mysid Shrimp 24 HR ([7]; 1.05 PPM DOSE, 25% solution): 100 | survival rate of Mysid Shrimp 48 HR ([7]; 1.05 PPM DOSE, 25% solution): 100 | survival rate of Mysid Shrimp 72 HR ([7]; 1.05 PPM DOSE, 25% solution): 100 | survival rate of Mysid Shrimp 96 HR ([7]; 1.05 PPM DOSE, 25% solution): 100 | surviving Mysid shrimp DAY 1 (bowls A, B) ([7]; 1.05 PPM DOSE, 25% solution): 10 | surviving Mysid shrimp DAY 2 (bowls A, B) ([7]; 1.05 PPM DOSE, 25% solution): 10 | surviving Mysid shrimp DAY 3 (bowls A, B) ([7]; 1.05 PPM DOSE, 25% solution): 10 | surviving Mysid shrimp DAY 4 (bowls A, B) ([7]; 1.05 PPM DOSE, 25% solution): 10 | survival rate of Mysid Shrimp 24 HR ([7]; 1.05 PPM DOSE, 50% solution): 100 | survival rate of Mysid Shrimp 48 HR ([7]; 1.05 PPM DOSE, 50% solution): 100 | survival rate of Mysid Shrimp 72 HR ([7]; 1.05 PPM DOSE, 50% solution): 95 | survival rate of Mysid Shrimp 96 HR ([7]; 1.05 PPM DOSE, 50% solution): 95 | surviving Mysid shrimp DAY 1 (bowls A, B) ([7]; 1.05 PPM DOSE, 50% solution): 10 | surviving Mysid shrimp DAY 2 (bowls A, B) ([7]; 1.05 PPM DOSE, 50% solution): 10 | surviving Mysid shrimp DAY 3 (bowls A, B) ([7]; 1.05 PPM DOSE, 50% solution): 10 and 9 | surviving Mysid shrimp DAY 4 (bowls A, B) ([7]; 1.05 PPM DOSE, 50% solution): 9 and 10 | survival rate of Mysid Shrimp 24 HR ([7]; 1.05 PPM DOSE, 75% solution): 100 | survival rate of Mysid Shrimp 48 HR ([7]; 1.05 PPM DOSE, 75% solution): 100 | survival rate of Mysid Shrimp 72 HR ([7]; 1.05 PPM DOSE, 75% solution): 100 | survival rate of Mysid Shrimp 96 HR ([7]; 1.05 PPM DOSE, 75% solution): 95 | surviving Mysid shrimp DAY 1 (bowls A, B) ([7]; 1.05 PPM DOSE, 75% solution): 10 | surviving Mysid shrimp DAY 2 (bowls A, B) ([7]; 1.05 PPM DOSE, 75% solution): 10 | surviving Mysid shrimp DAY 3 (bowls A, B) ([7]; 1.05 PPM DOSE, 75% solution): 10 | surviving Mysid shrimp DAY 4 (bowls A, B) ([7]; 1.05 PPM DOSE, 75% solution): 10 and 9 | survival rate of Mysid Shrimp 24 HR ([7]; 1.05 PPM DOSE, 100% solution): 100 | survival rate of Mysid Shrimp 48 HR ([7]; 1.05 PPM DOSE, 100% solution): 100 | survival rate of Mysid Shrimp 72 HR ([7]; 1.05 PPM DOSE, 100% solution): 90 | survival rate of Mysid Shrimp 96 HR ([7]; 1.05 PPM DOSE, 100% solution): 70 | surviving Mysid shrimp DAY 1 (bowls A, B) ([7]; 1.05 PPM DOSE, 100% solution): 10 | surviving Mysid shrimp DAY 2 (bowls A, B) ([7]; 1.05 PPM DOSE, 100% solution): 10 and 9 | surviving Mysid shrimp DAY 3 (bowls A, B) ([7]; 1.05 PPM DOSE, 100% solution): 8 and 10 | surviving Mysid shrimp DAY 4 (bowls A, B) ([7]; 1.05 PPM DOSE, 100% solution): 6 and 8 | No. of surviving shrimp DAY 2 ([7]; 100% effluent, 10 shrimp per bowl, set up Aug. 13, 2002, ClO2 samples 14:00 and 15:00, bowls A, B, landfill leachate slug in plant): 10 and 9 and 6 | AVG (% survival of bowls A and B) ([7]; 100% effluent, set up Aug. 13, 2002, ClO2 samples 14:00 and 15:00): 40% | mysid shrimp bioassay outcome ([7]; side stream, after adjustments to the chlorine dioxide generator (weaker hypochlorite solution)): successful (acceptable end-point survival) | Percent Survival Mysid bahia [8]: 0% | Inactivation in % ([9]; 0.15 ppm of ClO2, contact time 300 s): 99.9% | Inactivation in % ([9]; 0.25 ppm of ClO2, contact time 60 s): >99.999% | Inactivation in % ([10]; 0.5 ppm of ClO2, contact time 60 min): 99.99% | Inactivation in % ([10]; 2 ppm of ClO2, contact time 20 min): 99.999% | Inactivation in % [11]: 99.999% | survival of Silversides post CLO2 dosing [12]: always survived
